Reference: paper PMC11257039, “VCP activator reverses nuclear proteostasis defects and enhances TDP-43 aggregate clearance in multisystem proteinopathy models” (The Journal of Clinical Investigation, 2024)
Values joined by “and” are separate entries in the source; they are usually repeats but may differ in a detail not shown here. Equal values may be shown once. “Also recorded” adds a separate entry of the source.

Experiments:
recombinant WT VCP [1] = target: T1, recombinant WT VCP (Mus musculus, UniProt Q01853); test: Kinase-Glo ATPase assay, recombinant WT VCP; format: biochemical; settings: for ATP consumed: WT VCP no UN
T1 construct: in the full-length recombinant VCP; His (N); made in house; host or cells: Escherichia coli BL21-CodonPlus (DE3)-RIL
Procedure: (§1) Experiments with varied activator concentration and screening were measured using the Kinase-Glo Luminescent Kinase Assay (Promega). Reactions were incubated at 25°C for 1 hour then reduced to 4°C in a thermocycler consisting of 50 nM of recombinant VCP with or without 50 nM UFD1/NPLOC4 in 50 uL ATPase buffer (25 mM HEPES, pH 7.5, 100 mM NaCl, 10 mM MgCl2) at 2% DMSO with 62.5 μM ATP and a range of activator concentrations (Gibco, Sigma-Aldrich). Equal volumes of reaction and Kinase-Glo reagent were incubated for 20 minutes at room temperature in a 96 well white flat bottom plate (Corning). Luminescence was measured in a microplate reader (Spark 20M, Tecan).
(§2) Experiments with varied compound concentration were fit to a 3-parameter dose curve with asymmetric profile likelihood 95% confidence intervals in GraphPad Prism 9 (GraphPad). Experiments with varied ATP concentration were fit to a Michaelis-Menten model with asymmetric profile likelihood 95% confidence intervals. Significance was determined for experiments with fixed compound or fixed ATP concentration using a linear mixed-effects model.

WT VCP + Ufd1/Nploc4 = target: T2, WT VCP + Ufd1/Nploc4 (Mus musculus, UniProt Q01853); test: Kinase-Glo ATPase assay, WT VCP with UFD1/NPLOC4 (UN); format: biochemical; settings: for ATP consumed: WT VCP with UN
T2 construct: in the full-length recombinant VCP; His (N); made in house; host or cells: E. coli (VCP: BL21-CodonPlus (DE3)-RIL; UFD1 and NPLOC4: E. coli (DE3), purified by the MD Anderson core)
Procedure: as §1, §2

recombinant WT VCP [2] = target: T1, recombinant WT VCP; test: MESG-PNP (EnzCheck) phosphate release ATPase assay, WT VCP; format: biochemical; settings: for ATPase activity v0/ET: 25 μM compound, replicate experiments
Procedure: (§3) All other experiments were performed using the EnzCheck phosphatase assay kit (Molecular Probes). ATPase activity was measured in a 96-well flat bottom plate (Thermo Fisher Scientific). 50 nM VCP was incubated in 100 μL ATPase buffer with 2% DMSO with 25 μM compound and various ATP concentrations. The absorbance at 360 ± 5 nm was measured for more than 15 minutes at 25°C. Phosphate release was quantified based on a phosphate standard curve performed on the same plate. Initial enzyme velocity was determined by fitting the linear portion of the data to a linear regression model.
as §2

26S proteasome = 26S proteasome activity, Suc-LLVY-AMC fluorescence; format: biochemical, human; settings: 25 μM compound, versus 1% DMSO
Procedure: 26S proteasome and substrate suc-LLVY-AMC were purchased (LifeSensors, Inc.). Fluorescence was measured in a microplate reader using a 96-well optical bottom black plate (Thermo Fisher Scientific). […] 26S proteasome was incubated in 100 μL proteasome buffer (20 mM HEPES, pH 7.5, 0.5 mM EDTA, 0.05% Triton-X) with 100 μM suc-LLVY-AMC, 1 mM ATP, and 25 μM compound or 1% DMSO. Fluorescence was measured at excitation 380 ± 10nm and emission 460 ± 10nm for more than 15 minutes at 37°C. Initial velocity was determined by fitting the linear portion of the data to a linear regression model. Significance was determined for using a linear mixed-effects model.

[3] = tested on: WT HeLa cells expressing GFP-TDP-4FL; test: Flow cytometry of GFP-TDP-4FL integrated fluorescence, WT HeLa; format: cell-based; settings: for Integrated Fluorescence WT (Normalized to CHX): replicate values
Procedure: Drug treatments were performed on neurons 7 days after lentiviral transduction and 14 days after neuronal induction. HeLa cells were collected using trypsin and pelleted at 1000g for 3 minutes. Cell pellets were resuspended in colorless DMEM (Invitrogen) supplemented with 2% FBS and filtered through a BD tube with cell strainer (BD Biosciences) for flow cytometry analysis on LSR II (BD Biosciences). Data analysis was performed on FlowJo v10 software. Integrated fluorescence intensity was determined by multiplying percent positive GFP and GFP median fluorescence values.

luciferase = test: Luciferase counter assay: Kinase-Glo with 62.5 μM ATP without recombinant VCP; format: biochemical; settings: for measured ATP consumed (nmol) without VCP: replicate values
Procedure: as §1
(A-D) Measured ATP as determined by a Kinase-Glo assay of 62.5μM ATP in the presence of increasing concentrations of compound without recombinant VCP present. (for all panels: n=3 with 4 technical replicates per experiment, points are expressed as beta ± SE, linear mixed effects model, P>0.05 for each […]
(1 picture or pasted object on this page, not shown here)

A232E VCP = target: T3, A232E VCP (Mus musculus, UniProt Q01853, A232E); test: MESG-PNP ATPase assay, recombinant A232E VCP; format: biochemical; settings: VCP Mutation A232E; replicate values
T3 construct: in the full-length recombinant VCP; His (N); made in house; host or cells: Escherichia coli BL21-CodonPlus (DE3)-RIL
Procedure: as §3
(§4) Figure S8. VCP activators variable effect on ATPase activity of MSP associated mutations in recombinant VCP. ATPase activity of 50 nM recombinant VCP protein was measured using an MESG-PNP assay upon treatment with 25 μM compound versus 2% DMSO control at 1mM ATP for WT (also shown in Fig. 5c), A232E, R155H, and R159H (n=3 with 3 technical replicated per experiment; points are expressed as beta ± SE, linear effects model: *P<0.05,**P<0.01; ***P<0.001; ****P<0.0001).

R155H VCP = target: T4, R155H VCP (Mus musculus, UniProt Q01853, R155H); test: MESG-PNP ATPase assay, recombinant R155H VCP; format: biochemical; settings: VCP Mutation R155H; replicate values
T4 construct: in the full-length recombinant VCP; His (N); made in house; host or cells: Escherichia coli BL21-CodonPlus (DE3)-RIL
Procedure: as §3, §4

R159H VCP = target: T5, R159H VCP (Mus musculus, UniProt Q01853, R159H); test: MESG-PNP ATPase assay, recombinant R159H VCP; format: biochemical; settings: VCP Mutation R159H; replicate values
T5 construct: in the full-length recombinant VCP; His (N); made in house; host or cells: Escherichia coli BL21-CodonPlus (DE3)-RIL
Procedure: as §3, §4

T4 sequence (Q01853 whole entry R155H): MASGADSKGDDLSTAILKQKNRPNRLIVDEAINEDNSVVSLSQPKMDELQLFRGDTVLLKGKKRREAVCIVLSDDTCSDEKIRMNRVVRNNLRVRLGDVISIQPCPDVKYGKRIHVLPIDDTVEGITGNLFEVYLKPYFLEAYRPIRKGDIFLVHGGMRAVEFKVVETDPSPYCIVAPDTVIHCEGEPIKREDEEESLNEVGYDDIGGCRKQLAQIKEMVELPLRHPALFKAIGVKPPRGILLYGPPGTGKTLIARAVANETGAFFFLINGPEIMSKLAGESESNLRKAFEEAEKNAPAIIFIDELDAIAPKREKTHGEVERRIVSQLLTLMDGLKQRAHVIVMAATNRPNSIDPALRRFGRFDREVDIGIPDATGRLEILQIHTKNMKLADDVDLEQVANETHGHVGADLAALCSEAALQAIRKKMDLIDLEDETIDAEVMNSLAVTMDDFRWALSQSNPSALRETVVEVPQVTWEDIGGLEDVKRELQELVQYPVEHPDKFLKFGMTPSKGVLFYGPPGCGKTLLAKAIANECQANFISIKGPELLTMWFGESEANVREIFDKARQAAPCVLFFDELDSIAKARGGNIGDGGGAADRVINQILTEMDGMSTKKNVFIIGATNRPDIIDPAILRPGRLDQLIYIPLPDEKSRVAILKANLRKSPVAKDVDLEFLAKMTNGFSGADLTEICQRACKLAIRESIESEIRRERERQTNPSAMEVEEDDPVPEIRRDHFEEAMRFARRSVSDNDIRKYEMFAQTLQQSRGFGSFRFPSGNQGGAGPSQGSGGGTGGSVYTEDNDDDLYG
T3 sequence (Q01853 whole entry A232E): as the sequence (Q01853 whole entry R155H) above, with H155R, A232E counted along it
T1 sequence (Q01853 whole entry): as the sequence (Q01853 whole entry R155H) above, with H155R counted along it
T2 sequence (Q01853 whole entry): as the sequence (Q01853 whole entry R155H) above, with H155R counted along it
T2 sequence (Q92890 whole entry partner): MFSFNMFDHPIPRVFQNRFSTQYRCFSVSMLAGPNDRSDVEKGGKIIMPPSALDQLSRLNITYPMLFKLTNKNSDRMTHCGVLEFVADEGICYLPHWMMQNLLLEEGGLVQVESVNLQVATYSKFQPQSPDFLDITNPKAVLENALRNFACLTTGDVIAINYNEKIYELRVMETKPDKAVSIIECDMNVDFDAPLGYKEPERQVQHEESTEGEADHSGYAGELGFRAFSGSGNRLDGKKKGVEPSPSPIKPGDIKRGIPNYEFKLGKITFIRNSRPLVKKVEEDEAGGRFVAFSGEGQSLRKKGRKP
T2 sequence (Q8TAT6 whole entry partner): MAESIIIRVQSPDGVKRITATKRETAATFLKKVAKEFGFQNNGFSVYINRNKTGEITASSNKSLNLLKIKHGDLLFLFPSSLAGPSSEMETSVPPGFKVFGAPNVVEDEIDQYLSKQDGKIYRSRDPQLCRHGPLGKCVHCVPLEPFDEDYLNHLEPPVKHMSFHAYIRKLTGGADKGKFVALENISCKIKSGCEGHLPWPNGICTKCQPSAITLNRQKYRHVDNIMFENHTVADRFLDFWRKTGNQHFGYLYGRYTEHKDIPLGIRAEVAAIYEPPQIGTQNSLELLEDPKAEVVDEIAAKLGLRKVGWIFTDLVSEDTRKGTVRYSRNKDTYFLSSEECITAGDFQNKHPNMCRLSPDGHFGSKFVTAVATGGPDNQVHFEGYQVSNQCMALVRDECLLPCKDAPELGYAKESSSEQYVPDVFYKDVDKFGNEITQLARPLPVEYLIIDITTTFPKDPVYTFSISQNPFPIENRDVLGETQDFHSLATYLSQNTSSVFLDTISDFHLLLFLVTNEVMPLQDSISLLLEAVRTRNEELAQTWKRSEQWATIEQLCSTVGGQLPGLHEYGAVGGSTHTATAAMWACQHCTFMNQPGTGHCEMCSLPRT
T5 sequence (Q01853 whole entry R159H): as the sequence (Q01853 whole entry R155H) above, with H155R, R159H counted along it

## O=C(OCCN(C1=NS(=O)(=O)c2ccccc21)c1ccc(Cl)cc1)c1ccco1 [UP163]
Recombinant WT VCP [1]; EC50 (μM) (95% CI), WT VCP without UN, 50 nM VCP, 62.5 μM ATP, 2% DMSO
  EC50: 9 µM
Recombinant WT VCP [1]; 1.56 μM compound
  ATP consumed: 0.996 nmol and 1.192 nmol and 1.605 nmol
Recombinant WT VCP [1]; 3.13 μM compound
  ATP consumed: 0.935 nmol and 1.312 nmol and 1.332 nmol
Recombinant WT VCP [1]; 6.25 μM compound
  ATP consumed: 1.040 nmol and 1.494 nmol and 1.616 nmol
Recombinant WT VCP [1]; 12.5 μM compound
  ATP consumed: 1.105 nmol and 1.570 nmol and 1.588 nmol
Recombinant WT VCP [1]; 25 μM compound
  ATP consumed: 1.206 nmol and 1.717 nmol and 1.792 nmol
Recombinant WT VCP [1]; 50 μM compound
  ATP consumed: 1.416 nmol and 2.232 nmol and 2.160 nmol
Recombinant WT VCP [1]; 100 μM compound
  ATP consumed: 1.546 nmol and 2.072 nmol and 2.521 nmol
Recombinant WT VCP [1]; 200 μM compound
  ATP consumed: 1.557 nmol and 2.138 nmol and 2.227 nmol
Recombinant WT VCP [1]; in vitro validation of 106 screen hits
  recombinant WT VCP ATPase activity: significantly increased
Recombinant WT VCP [1]; maximum, WT VCP without UN
  increase of VCP activity: 104%
WT VCP + Ufd1/Nploc4
  change in EC50 with UN compared to without UN: no change in EC50
  change in maximum percent activity with UN compared to without UN: significantly decreased
WT VCP + Ufd1/Nploc4; WT VCP + Ufd1/Nploc4, 1:1 molar ratio
  EC50: 8.9 µM
WT VCP + Ufd1/Nploc4; 1.56 μM compound
  ATP consumed: 1.198 nmol and 1.183 nmol and 1.402 nmol
WT VCP + Ufd1/Nploc4; 3.13 μM compound
  ATP consumed: 1.366 nmol and 1.295 nmol and 1.519 nmol
WT VCP + Ufd1/Nploc4; 6.25 μM compound
  ATP consumed: 1.504 nmol and 1.416 nmol and 1.656 nmol
WT VCP + Ufd1/Nploc4; 12.5 μM compound
  ATP consumed: 1.666 nmol and 1.564 nmol and 1.799 nmol
WT VCP + Ufd1/Nploc4; 25 μM compound
  ATP consumed: 1.783 nmol and 1.641 nmol and 1.890 nmol
WT VCP + Ufd1/Nploc4; 50 μM compound
  ATP consumed: 1.844 nmol and 1.710 nmol and 1.941 nmol
WT VCP + Ufd1/Nploc4; 100 μM compound
  ATP consumed: 1.839 nmol and 1.775 nmol and 1.995 nmol
WT VCP + Ufd1/Nploc4; 200 μM compound
  ATP consumed: 1.798 nmol and 1.691 nmol and 2.001 nmol
Recombinant WT VCP [2]; 25 μM activator
  kcat (nmol Pi / nmol VCP / s) (95% CI): 0.366 (0.335, 0.401) nmol Pi / nmol VCP / s
Recombinant WT VCP [2]; 25 μM activator, versus DMSO
  increase in kcat: more than 50%
Recombinant WT VCP [2]; [ATP] 62.5 μM
  ATPase activity v0/ET: 0.201 nmol Pi / nmol VCP / s and 0.212 nmol Pi / nmol VCP / s and 0.198 nmol Pi / nmol VCP / s
Recombinant WT VCP [2]; [ATP] 125 μM
  ATPase activity v0/ET: 0.260 nmol Pi / nmol VCP / s and 0.250 nmol Pi / nmol VCP / s and 0.255 nmol Pi / nmol VCP / s
Recombinant WT VCP [2]; [ATP] 250 μM
  ATPase activity v0/ET: 0.300 nmol Pi / nmol VCP / s and 0.288 nmol Pi / nmol VCP / s and 0.278 nmol Pi / nmol VCP / s
Recombinant WT VCP [2]; [ATP] 500 μM
  ATPase activity v0/ET: 0.335 nmol Pi / nmol VCP / s and 0.312 nmol Pi / nmol VCP / s and 0.331 nmol Pi / nmol VCP / s
Recombinant WT VCP [2]; [ATP] 1000 μM
  ATPase activity v0/ET: 0.366 nmol Pi / nmol VCP / s and 0.351 nmol Pi / nmol VCP / s and 0.360 nmol Pi / nmol VCP / s
26S proteasome
  % activity of 26S proteasome: 101.6% and 88.7% and 86.5% and 112.7% and 93.3% and 91.5%
[3]; 5μM compound with CHX
  Integrated Fluorescence WT (Normalized to CHX): 1.026 and 0.947 and 1.013 and 0.859 and 0.810
[3]; 20μM compound with CHX
  Integrated Fluorescence WT (Normalized to CHX): 0.921 and 1.001 and 0.939 and 1.006 and 0.777 and 0.710
[3]; MG132, then CHX with 5 or 20 μM activator
  clearance of GFP-TDP-4FL aggregates (integrated fluorescence): enhances clearance of TDP-4FL inclusions; also recorded: slightly enhanced clearance
luciferase; 62.5 μM ATP, increasing concentrations of compound
  luciferase activity (measured ATP without VCP): did not inhibit luciferase activity
luciferase; compound 6.25 μM
  measured ATP consumed (nmol) without VCP: 3.139 nmol and 3.185 nmol and 3.132 nmol and 3.341 nmol and 3.220 nmol and 3.273 nmol and 3.147 nmol and 3.064 nmol and 3.275 nmol and 3.208 nmol and 3.040 nmol and 3.045 nmol
luciferase; compound 12.5 μM
  measured ATP consumed (nmol) without VCP: 3.118 nmol and 3.105 nmol and 3.142 nmol and 3.139 nmol and 3.279 nmol and 3.429 nmol and 3.221 nmol and 3.237 nmol and 3.278 nmol and 3.379 nmol and 3.331 nmol and 3.029 nmol
luciferase; compound 25 μM
  measured ATP consumed (nmol) without VCP: 3.141 nmol and 3.208 nmol and 3.280 nmol and 3.310 nmol and 3.135 nmol and 3.015 nmol and 3.257 nmol and 3.266 nmol and 3.329 nmol and 3.083 nmol and 3.153 nmol
luciferase; compound 50 μM
  measured ATP consumed (nmol) without VCP: 3.191 nmol and 3.073 nmol and 3.250 nmol and 3.386 nmol and 3.272 nmol and 3.113 nmol and 3.202 nmol and 3.171 nmol and 3.209 nmol and 3.373 nmol and 3.530 nmol and 3.028 nmol
luciferase; compound 100 μM
  measured ATP consumed (nmol) without VCP: 3.232 nmol and 3.235 nmol and 3.017 nmol and 3.209 nmol and 3.245 nmol and 3.024 nmol and 3.264 nmol and 3.329 nmol and 3.427 nmol and 3.000 nmol and 3.076 nmol
luciferase; compound 200 μM
  measured ATP consumed (nmol) without VCP: 3.190 nmol (2×) and 3.291 nmol and 3.314 nmol and 3.330 nmol and 3.165 nmol and 3.125 nmol and 3.456 nmol and 3.010 nmol and 3.038 nmol and 3.261 nmol and 3.272 nmol
A232E VCP
  ATPase activity, nmol Pi / nmol VCP / s: 0.830 nmol Pi / nmol VCP / s and 0.637 nmol Pi / nmol VCP / s and 0.764 nmol Pi / nmol VCP / s
R155H VCP
  ATPase activity, nmol Pi / nmol VCP / s: 0.759 nmol Pi / nmol VCP / s and 0.647 nmol Pi / nmol VCP / s and 0.706 nmol Pi / nmol VCP / s
R159H VCP
  ATPase activity, nmol Pi / nmol VCP / s: 0.812 nmol Pi / nmol VCP / s and 0.873 nmol Pi / nmol VCP / s and 0.726 nmol Pi / nmol VCP / s
